Read-outs that look alike come from different tables or passages of the source.
Experiments:
HL-60 (human leukemia) = test: In vitro antiproliferative MTT assay, HL-60; type: cell-based
Protocol: (§1) The antiproliferative activity of compounds 5a–r was determined based on an MTT assay and using CA-4 as standard against the tumor cell lines: HL-60 (human leukemia), SF-295 (human glioblastoma), MDA-MB435 (melanoma), PC3M (prostate cancer), OVCAR-8 (ovaries adenocarcinoma), NCI-H258M (pulmonary bronchio-alveolar carcinoma) and HCT-8 (adenocarcinoma ileocecal) (Table 2). To determine the selectivity index of compounds 5a–r, their antiproliferative profile was also evaluated toward human lymphocytes (Table 2).
(§2) Compounds (0.009–5 µg/mL) were tested for cytotoxic activity against selected cancer cell lines: SF-295 (glioblastoma), HCT-8 (colon), MDAMB-435 (melanoma), HL60 (leukemia), PC3M (prostate cancer), OVCAR-8 (ovaries adenocarcinoma) and NCI-H258M (pulmonary bronchio-alveolar carcinoma). All cell lines were kindly obtained from the National Cancer Institute (Bethesda, MD, USA).Tumor cell proliferation was quantified through the ability of living cells to reduce the yellow dye 3-(4,5-dimethyl-2-thiazolyl)-2,5-diphenyl-2H-tetrazolium bromide (MTT, Sigma Aldrich)) to a purple formazan product and absorbance was measured at 595 nm (DTX-880, Beckman Coulter).

[1] = test system: SF-295 (human glioblastoma); test: In vitro antiproliferative MTT assay, SF-295; type: cell-based
Protocol: as §1, §2

MDA-MB435 (melanoma) [2] = test: In vitro antiproliferative MTT assay, MDA-MB435; type: cell-based
Protocol: as §1, §2

PC3M (prostate cancer) = test: In vitro antiproliferative MTT assay, PC3M; type: cell-based
Protocol: as §1, §2

[3] = test system: NCI-H358M (pulmonary bronchio-alveolar carcinoma); test: In vitro antiproliferative MTT assay, NCI-H358M; type: cell-based
tubulin = test: Tubulin polymerization assay (CEREP); type: biochemical; settings: single concentration C = 30 µM; vinblastine as positive control
Protocol: The tubulin polymerization assay was performed by CEREP® employing a single concentration of 5b (C = 30 µM), using vinblastine as positive control. In this assay, LASSBio-1586 (5b) inhibited 91% of the tubulin polymerization, validating the rational design employed in the molecular design of the derivatives 5a–r (data not shown; available in the supplementary information, Figure S1).
The tubulin polymerization assay was performed by CEREP®, as described by Bonne and co-workers.

SF-295 (glioblastoma) = test: Hollow Fiber Assay (HFA), SF-295 fibers s.c. in mice; type: in vivo, BALB/c nude mice; settings: 4 days; for Proliferation (OD595 nm) SF-295: mean ± S.E.M.
Protocol: Cell culture of SF-295 (glioblastoma) and HCT-116 (colon carcinoma) was performed in RPMI 1640 medium supplemented with 10% fetal bovine serum, 2 mM glutamine, at 37°C with 5% CO2.
Polyvinylidene fluoride (PVDF) HFs with a 1-mm internal diameter and a molecular weight cutoff point of 500 kDa were used (Spectrum Laboratories, Houston, TX). The fibers were cut into pieces 12–15 cm long, washed 2× with sterile distilled water and kept in sterile conditions.
Before use, under sterile conditions, the fibers were incubated in complete RPMI with 20% fetal bovine serum (FBS) overnight (packaging time). Cell viability was assessed by trypan blue exclusion assay. Then, a cell suspension of 7.0×10^6 cell/mL at 4°C was injected into the fiber, with the ends thereof immediately heat-sealed. The fibers were cut into 2 cm each, transferred to petri plates and incubated in complete RPMI medium for 24 h prior to implantation in mice. Each cell was injected into one fiber of a different color (HCT-116, yellow fibers; SF-295, blue fibers).
Each animal received 2 fibers at s.c. site. All incisions were sealed with a surgical stapler.
Tumor cell proliferation was quantified through the ability of living cells to reduce the yellow dye 3-(4,5-dimethyl-2-thiazolyl)-2,5-diphenyl-2H-tetrazolium bromide (MTT, Sigma Aldrich) to a purple formazan product. For this purpose, the fibers removed from animals were incubated with MTT 1 mg/mL in 6-well plates during 4 h at 37°C, 5% CO2 and 95% humidity. The MTT solution was aspirated; fibers were washed with saline solution containing protamine sulphate 2.5% and incubated in protamine solution overnight at 4°C. Fibers were transferred to 24 well plates, cut into 2 or 3 pieces and put to dry. The formazan was dissolved in […] of DMSO, aliquots (150 uL) were transferred to 96 well plates and absorbance was measured at 595 nm (DTX-880, Beckman Coulter).

BALB/c nude mice = settings: for Survival: 4 days
Protocol: During the HFA, tumor cells (i.e., SF-295 and HCT-116) were cultivated within biocompatible, semipermeable polyvinylidene fluoride hollow fibers (HFs) and subcutaneously (s.c.) implanted within the dorsal portion of BALB/c nude mice. LASSBio-1586 (5b) and 5-Fluorouracil (5-FU), which was the positive control, were administered intraperitoneally for 4 consecutive days. On day 5, the fibers were removed to quantify the antiproliferative activity of 5b and 5-FU.
A total of 26 female BALB/c nude (nu/nu) mice aging 6–8 weeks were obtained from the animal facilities of State University of São Paulo (USP), Faculty of Medicine, São Paulo (SP), Brazil. They were kept in well-ventilated and sterile cages (Alesco, São Paulo) under standard conditions of light (12 h with alternative day and night cycles) and temperature (22±1°C) and were housed with access to commercial sterile rodent stock diet (Nutrilabor, São Paulo, Brazil) and water ad libitum. As previously mentioned procedures are in accordance with guidelines for the welfare of animals in experimental neoplasia and with national and international standard on the care and use of experimental laboratory animals and were approved by the local Ethical Committee on Animal Research (Process No. 102/2007).
Mice were anaesthetized with ketamine (90 mg/kg) - xylazine (4.5 mg/kg) (Sigma Aldrich). Groups were divided into: a) Negative control (DMSO 5%, n = 6); b) Positive control (5-Flouoruracil, 5-FU, 25 mg/kg/day, n = 7) (Sigma Aldrich); c) LASSBio-1586 (5b; 25 mg/kg/day, n = 7); d) LASSBio-1586 (5b; 50 mg/kg/day, n = 6). A small incision in the neck was incised to permit subcutaneous (s.c.) implantation of the fibers in the dorsal part of the animal. Each animal received 2 fibers at s.c. site. All incisions were sealed with a surgical stapler. The test compounds were administered intraperitoneally during 4 consecutive days. On day 5, fibers were removed to quantify the antiproliferative capacity as described above.

MDA-MB435 (melanoma) [4] = test: In vitro antiproliferative MTT assay, MDA-MB435; type: cell-based; settings: Homo sapiens, MDA-MB-435; Table 2; MTT
[5] = IC50 for human lymphocytes/IC50 for cancer cell line
[6] = SI of 5b relative to SI of CA-4

COc1cc(C(=O)N/N=C/c2ccccc2)cc(OC)c1OC [Compound 5b, (E)-N′benzylidene-3,4,5-trimetoxybenzohydrazide]
IC50 (HL-60 (human leukemia); Homo sapiens, HL-60, Table 2, MTT): 290 nM
SI Lymphocyte/ HL-60 (HL-60 (human leukemia); [5]): 4.11±0.39
IC50 ([1]; Homo sapiens, SF-295, Table 2, MTT, read-out: IC50 SF295): 260 nM
SI Lymphocyte/ SF-295 [1, 5]: 4.88±0.42
comparative selectivity index (CA-4 vs 5b) SF-295 [1, 6]: 13
SI Lymphocyte/ MDA-MB345 (MDA-MB435 (melanoma) [2]; [5]): 20.07±0.93
comparative selectivity index (CA-4 vs 5b) MDA-MB435 (MDA-MB435 (melanoma) [2]; [6]): 42
IC50 (PC3M (prostate cancer); Homo sapiens, PC-3M, Table 2, MTT): 800 nM
SI Lymphocyte/ PC3M (PC3M (prostate cancer); [5]): 1.60±0.10
SI Lymphocyte/ NCI-H358M [3, 5]: 4.05±0.25
IC50 ([3]; NCI-H358M, Table 2, MTT): 350 nM
comparative selectivity index (CA-4 vs 5b) NCI-H258M [3, 6]: 9.5
inhibition of tubulin polymerization (tubulin): 91%
Inhibition (%) SF-295 (SF-295 (glioblastoma); 25 mg/kg/day intraperitoneally): 61.89%
Proliferation (OD595 nm) SF-295 (SF-295 (glioblastoma); 25 mg/kg/day intraperitoneally): 0.57±0.05 OD595 nm
Inhibition (%) SF-295 (SF-295 (glioblastoma); 50 mg/kg/day intraperitoneally): 72.68%
Proliferation (OD595 nm) SF-295 (SF-295 (glioblastoma); 50 mg/kg/day intraperitoneally): 0.41±0.06 OD595 nm
Survival (BALB/c nude mice; 25 mg/kg/day intraperitoneally): 7/7
Survival (BALB/c nude mice; 50 mg/kg/day intraperitoneally): 6/6
deaths of mice during treatment (BALB/c nude mice; intraperitoneally for 4 consecutive days, HFA): no deaths occurred
IC50 (MDA-MB435 (melanoma) [4]): 64 nM

Source: paper PMC3948622, “Docking, Synthesis and Antiproliferative Activity of N-Acylhydrazone Derivatives Designed as Combretastatin A4 Analogues” (PLoS ONE, 2014)
